# Source: PubChem BioAssay (NCI)
#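 Values below derive from 48-hour exposures of cells grown in 96-well plates, with endpoints linearly interpolated between the two concentrations bracketing the appropriate inhibition level. GI50 is the concentration that inhibits growth by half. The concentration for full growth arrest is given as TGI.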
# Experiments:
# Test in all cases: growth of human tumour cells (NCI), 48 h
# NCI-H460 lung = tested on: NCI-H460 lung
# SF-539 CNS = tested on: SF-539 CNS
# ACHN renal = tested on: ACHN renal
# U251 CNS = tested on: U251 CNS
# A549 NSCLC = tested on: A549 NSCLC
# SK-MEL-5 melanoma = tested on: SK-MEL-5 melanoma
# KM12 colon = tested on: KM12 colon
# SK-MEL-2 melanoma = tested on: SK-MEL-2 melanoma
# OVCAR-8 ovarian = tested on: OVCAR-8 ovarian
# HS 578T breast = tested on: HS 578T breast
SMILES,TGI (NCI-H460 lung) [µM],TGI (SF-539 CNS) [µM],TGI (ACHN renal) [µM],TGI (U251 CNS) [µM],TGI (A549 NSCLC) [µM],TGI (SK-MEL-5 melanoma) [µM],TGI (KM12 colon) [µM],TGI (SK-MEL-2 melanoma) [µM],TGI (OVCAR-8 ovarian) [µM],GI50 (HS 578T breast) [µM],TGI (HS 578T breast) [µM],GI50 (NCI-H460 lung) [µM],GI50 (SF-539 CNS) [µM],GI50 (ACHN renal) [µM],GI50 (A549 NSCLC) [µM],GI50 (SK-MEL-5 melanoma) [µM],GI50 (OVCAR-8 ovarian) [µM],GI50 (KM12 colon) [µM],GI50 (SK-MEL-2 melanoma) [µM]
C[C@H]1CCC2C(CN3CCCCC3)C(=O)OC2[C@]2(C)C(=O)CC(N3CCCCC3)C12O (stereo partly drawn),32.6,7.93,9.73,24.5,90.8,16.3,12.3,90.4,,,,,,,,,,,
C=CCn1c(=O)c(C(=O)NC(=O)OCC)cn(C2CCCCC2)c1=O,> 100,> 100,> 100,> 100,> 100,> 100,> 100,> 100,> 100,,,,,,,,,,
O=C1CCCCCCCCCCOC(=O)CCCCCCCCCCO1,> 100,> 100,> 100,> 100,> 100,> 100,> 100,> 100,> 100,,,,,,,,,,
O=C(CC1(O)C(=O)Nc2ccc([N+](=O)[O-])cc21)c1ccc(Br)cc1 (stereo not drawn),> 100,> 100,> 100,51,> 100,,> 100,> 100,> 100,,,,,,,,,,
C=C(C)[C@@H]1CC[C@]2(C(=O)N3CCN(C)CC3)CC[C@]3(C)[C@H](CC[C@@H]4[C@@]5(C)CC[C@H](O)C(C)(C)[C@@H]5CC[C@]43C)[C@@H]12,4.04,3.12,3.12,,3.88,3.15,4.03,3.14,4.56,1.94,4.68,2.02,1.69,1.69,1.88,1.72,1.69,2.09,1.64
O=c1[nH]c(-c2ccc([N+](=O)[O-])cc2)nc2ccc(Cl)cc12,,> 100,> 100,> 100,> 100,> 100,> 100,> 100,> 100,,,,,,,,,,
NNc1ncnc2cccc(Cl)c12,> 100,> 100,> 100,> 100,> 100,> 100,> 100,,> 100,,> 100,,,,,,,,
C1=CC(=NN=P(c2ccccc2)(c2ccccc2)c2ccccc2)C=C1,> 100,,> 100,,> 100,> 100,> 100,> 100,> 100,,,,,,,,,,
C=CNC(=S)n1nc(-c2ccccc2NC(=O)C(F)(F)F)c(=O)n(C(=S)NC=C)c1=S,47.3,> 1,> 100,> 100,> 1,35.5,> 100,> 100,> 100,,,,,,,,,,
COc1ccc2c(c1)CC1N(C)CCC13CCCCC23 (stereo not drawn),> 100,,> 100,> 100,> 100,> 100,> 100,> 100,> 100,,> 100,,,,,,,,
C/C(CC(=O)Nc1ccc([N+](=O)[O-])cc1)=N\Nc1ccc([N+](=O)[O-])cc1[N+](=O)[O-],> 100,> 100,> 100,> 100,> 100,> 100,> 100,> 100,> 100,,,,,,,,,,
